Active and inactive are the calls of the source. No cut-off for these calls is given here.
How the values were obtained:
[1] = tested on: Mus musculus; assay: Hepatoprotective activity in APAP-induced male C57BL/6 mouse model of acute liver injury assessed as reduction in pathological damage in liver at 12.5 to 25 mg/kg, ip measured after 12 hrs by H and E staining based analysis; assay type: functional, organism-based; conditions: dose 12.5-25 mg/kg
[2] = tested on: Mus musculus; assay: Hepatoprotective activity in APAP-induced male C57BL/6 mouse model of acute liver injury assessed as attenuation of catalase (CAT) level in liver at 12.5 to 25 mg/kg, ip measured after 12 hrs; assay type: functional, organism-based; conditions: dose 12.5-25 mg/kg
[3] = Drug concentration in liver of APAP-induced acute liver injury male C57BL/6 mouse model at 25 mg/kg, ip pre-administered with compound for 1 hr followed by APAP induction and measured after 12 hrs by Mass spectrometric analysis; assay type: ADME, organism-based; conditions: read-out: Ct
[4] = tested on: Mus musculus; assay: Anti-inflammatory activity against APAP-induced male C57BL/6 mouse model of acute liver injury assessed as upregulation of HO-1 mRNA level in liver administered intraperitoneally and measured after 12 hrs by RT-qPCR analysis; assay type: functional, organism-based; conditions: dose 12.5-25 mg/kg, route ip
[5] = target: T1, Nuclear factor erythroid 2-related factor 2 (Mus musculus) (UniProt Q60795); assay: Activation of Nrf2 in LPS-stimulated mouse AML12 cells assessed as upregulation of HO-1 mRNA expression by measuring fold change at 10 uM incubated for 16 hrs relative to sulforaphane; assay type: cell-based; conditions: filed as activator
T1 sequence (whole entry): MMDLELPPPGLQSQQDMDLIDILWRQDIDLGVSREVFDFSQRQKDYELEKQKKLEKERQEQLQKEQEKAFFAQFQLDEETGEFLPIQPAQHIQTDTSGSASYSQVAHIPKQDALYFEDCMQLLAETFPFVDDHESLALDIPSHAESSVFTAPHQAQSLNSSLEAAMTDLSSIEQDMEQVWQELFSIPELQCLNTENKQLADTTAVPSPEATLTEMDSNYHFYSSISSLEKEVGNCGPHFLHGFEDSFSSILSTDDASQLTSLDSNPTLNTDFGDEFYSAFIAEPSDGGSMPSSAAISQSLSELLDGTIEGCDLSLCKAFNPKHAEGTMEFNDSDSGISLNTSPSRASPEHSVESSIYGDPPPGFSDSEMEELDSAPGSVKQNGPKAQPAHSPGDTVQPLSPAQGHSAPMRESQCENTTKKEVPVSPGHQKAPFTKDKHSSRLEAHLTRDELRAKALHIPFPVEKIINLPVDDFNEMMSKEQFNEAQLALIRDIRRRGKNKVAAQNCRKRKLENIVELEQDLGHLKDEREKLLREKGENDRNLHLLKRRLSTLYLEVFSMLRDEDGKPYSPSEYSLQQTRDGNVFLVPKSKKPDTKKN

[6] = Drug concentration in liver of APAP-induced acute liver injury male C57BL/6 mouse model at 12.5 mg/kg, ip pre-administered with compound for 1 hr followed by APAP induction and measured after 12 hrs by Mass spectrometric analysis; assay type: ADME, organism-based; conditions: read-out: Ct
[7] = tested on: Mus musculus; assay: Hepatoprotective activity in APAP-induced male C57BL/6 mouse model of acute liver injury assessed as reduction in AST level in liver at 12.5 to 25 mg/kg, ip measured after 12 hrs; assay type: functional, organism-based; conditions: dose 12.5-25 mg/kg
[8] = tested on: Mus musculus; assay: In vivo induction of Nrf2 nuclear translocation in APAP-induced male C57BL/6 mouse model of acute liver injury assessed as increase in nuclear Nrf2 level at 12.5 to 25 mg/kg, ip measured after 12 hrs by Western blot analysis; assay type: functional, organism-based; conditions: dose 12.5-25 mg/kg
[9] = tested on: Mus musculus; assay: Anti-inflammatory activity in APAP-induced C57BL/6 mouse model of acute liver injury assessed as reduction in TNFalpha mRNA level in liver at 12.5 to 25 mg/kg, ip measured after 12 hrs by ELISA; assay type: functional, organism-based; conditions: dose 12.5-25 mg/kg
[10] = Toxicity in C57BL/6J mouse assessed as histopathological change in respiratory tissue at 25 mg/kg, ip by H and E staining based analysis; assay type: organism-based; conditions: in vivo
[11] = tested on: Mus musculus; assay: Hepatoprotective activity in APAP-induced Nrf2 knockout male C57BL/6 mouse model of acute liver injury assessed as reduction in liver damage at 25 mg/kg, ip preadministered with compound followed by APAP induction and measured after 12 hrs by H and E staining based analysis; assay type: functional, organism-based
[12] = Toxicity in C57BL/6J mouse assessed as histopathological change in cardiovascular tissue at 25 mg/kg, ip by H and E staining based analysis; assay type: organism-based; conditions: in vivo
[13] = target: T1, Nuclear factor erythroid 2-related factor 2 (Mus musculus); assay: Activation of Nrf2 in LPS-stimulated mouse AML12 cells assessed as upregulation of HO-1 protein level incubated for 16 hrs by Western blot analysis; assay type: cell-based; conditions: filed as activator, dose 0.5-10 µM
[14] = tested on: Mus musculus; assay: Hepatoprotective activity in APAP-induced Nrf2 knockout male C57BL/6 mouse model of acute liver injury assessed as effect on ALT level in liver at 25 mg/kg, ip preadministered with compound followed by APAP induction and measured after 12 hrs; assay type: functional, organism-based
[15] = AUC (0 to t) last in Sprague-Dawley rat at 1 mg/kg, iv; assay type: ADME, organism-based; conditions: in vivo
[16] = Elimination half life in Sprague-Dawley rat at 10 mg/kg, po; assay type: ADME, organism-based; conditions: in vivo, read-out: beta t1/2 (converted)
[17] = Cmax in Sprague-Dawley rat at 10 mg/kg, po; assay type: ADME, organism-based; conditions: in vivo
[18] = tested on: Mus musculus; assay: Anti-inflammatory activity against APAP-induced male C57BL/6 mouse model of acute liver injury assessed as restoration of HO-1 protein level in liver at 12.5 to 25 mg/kg, ip measured after 12 hrs by Western blot analysis; assay type: functional, organism-based; conditions: dose 12.5-25 mg/kg
[19] = Toxicity in C57BL/6J mouse assessed as histopathological change in renal tissue at 25 mg/kg, ip by H and E staining based analysis; assay type: organism-based; conditions: in vivo
[20] = Toxicity in C57BL/6J mouse assessed as histopathological change in hepatic tissue at 25 mg/kg, ip by H and E staining based analysis; assay type: organism-based; conditions: in vivo
[21] = tested on: Mus musculus; assay: Hepatoprotective activity in APAP-induced male C57BL/6 mouse model of acute liver injury assessed as reduction in ALT level in liver at 12.5 to 25 mg/kg, ip measured after 12 hrs; assay type: functional, organism-based; conditions: dose 12.5-25 mg/kg
[22] = Elimination half life in Sprague-Dawley rat at 1 mg/kg, iv; assay type: ADME, organism-based; conditions: in vivo, read-out: beta t1/2 (converted)
[23] = tested on: Mus musculus; assay: Anti-inflammatory activity in APAP-induced C57BL/6 mouse model of acute liver injury assessed as reduction in TNFalpha level in serum at 12.5 to 25 mg/kg, ip measured after 12 hrs by ELISA; assay type: functional, organism-based; conditions: dose 12.5-25 mg/kg

With `COc1ccc(-c2cc(=O)c3ccc(NS(=O)(=O)c4ccc(F)cc4)cc3o2)cc1` the Activity [1] was “Active”, the Activity [2] was “Active” and the concentration at 13 h [3] was 485 ng/g. For the same compound, the Activity [4] was “Dose-dependent-effect”, the fold change (FC) [5] was 3.4 and the concentration at 13 h [6] was 175 ng/g. For the same compound, the Activity [7] was “Active”, the Activity [8] was “Active” and the Activity [9] was “Active”. For the same compound, the Activity [10] was “Non-toxic”, the Activity [11] was “inactive” and the Activity [12] was “Non-toxic”. The Activity [13] was “Dose-dependent-effect”, the Activity [14] was “No effect” and the AUCt [15] was 3869 ng·h/mL. For the same compound, the half-life [16] was 3.47 h, the Cmax [17] was 1300 ng/mL and the Activity [18] was “Active”. For the same compound, the Activity [19] was “Non-toxic”, the Activity [20] was “Non-toxic” and the Activity [21] was “Active”. For the same compound, the half-life [22] was 5.45 h and the Activity [23] was “Active”.

Source: ChEMBL document CHEMBL6182905, “Fluorinated sulfonamide-flavonoid derivatives as novel Keap1-Nrf2 inhibitors: Potent induction of cytoprotective gene HO-1 in vivo” (Eur J Med Chem, 2025)
